# Measured values taken from ChEMBL document CHEMBL5375981, “Enhanced Tumor Targeting and Penetration of Proteolysis-Targeting Chimeras through iRGD Peptide Conjugation: A Strategy for Precise Protein Degradation in Breast Cancer” (J Med Chem, 2023).
# Calls of active or inactive are those of the source. The rule behind the calls is not given here.
# Columns and labels:
# [1] = biological target: Bromodomain-containing protein 4 (Homo sapiens) (UniProt O60885); test: Induction of BRD4 degradation in human MDA-MB-231 cells harboring high integrin alphaVbeta3 expression at 0.11 uM incubated for 24 hrs by Western blot analysis; assay type: cell-based
# [2] = Solubility in distilled water measured for 30 mins by ultraviolet spectrophotometry analysis; assay type: physicochemical
# [3] = Stability of compound in PBS containing 5% serum at 50 uM measured after 72 hrs by LC-MS analysis; assay type: physicochemical, cell-free; details: read-out: Stability
# [4] = Drug release in PBS assessed as increase in (2S)-1-((R)-2-(tert-butyl)-17-((S)-4-(4-chlorophenyl)-2,3,9-trimethyl-6H-thieno[3,2-f][1,2,4]triazolo[4,3-a][1,4]diazepin-6-yl)-4,16-dioxo-6,9,12-trioxa-3,15-diazaheptadecanoyl)-4-hydroxy-N-((S)-1-(4-(4-methylthiazol-5-yl)phenyl)ethyl)pyrrolidine-2-carboxamide concentration at 50 uM in presence of GSH by LC-MS analysis; assay type: ADME; details: buffer, TDE = time-dependent effect
# [5] = biological target: Bromodomain-containing protein 4 (Homo sapiens) (UniProt O60885); test: Induction of BRD4 degradation in human MCF7 cells harboring low integrin alphaVbeta3 expression at 0.01 to 1 uM incubated for 24 hrs by Western blot analysis; assay type: cell-based; details: dose 0.01-1 µM
# [6] = biological target: Bromodomain-containing protein 4 (Homo sapiens) (UniProt O60885); test: Induction of BRD4 degradation in human L02 cells lacking integrin alphaVbeta3 expression at 0.01 to 1 uM incubated for 24 hrs by Western blot analysis; assay type: cell-based; details: dose 0.01-1 µM
# [7] = biological target: Bromodomain-containing protein 4 (Homo sapiens) (UniProt O60885); test: Induction of BRD4 degradation in human MDA-MB-231 cells harboring high integrin alphaVbeta3 expression at 300 nM incubated for 16 to 20 hrs by Western blot analysis; assay type: cell-based; details: time 16-20 hrs
# [8] = biological target: Bromodomain-containing protein 4 (Homo sapiens) (UniProt O60885); test: Induction of BRD4 degradation in human MCF7 cells harboring low integrin alphaVbeta3 expression at 300 nM incubated for 12 hrs by immunofluorescence staining based confocal microscopic analysis; assay type: cell-based
# [9] = biological target: Bromodomain-containing protein 4 (Homo sapiens) (UniProt O60885); test: Induction of BRD4 degradation in human L02 cells lacking integrin alphaVbeta3 expression at 300 nM incubated for 12 hrs by immunofluorescence staining based confocal microscopic analysis; assay type: cell-based
# [10] = biological target: Bromodomain-containing protein 4 (Homo sapiens) (UniProt O60885); test: Induction of BRD4 degradation in human MDA-MB-231 cells harboring high integrin alphaVbeta3 expression at 1 uM incubated for 12 hrs by immunofluorescence staining based confocal microscopic analysis; assay type: cell-based
# MDA-MB-231 [11] = test: Antiproliferative activity against human MDA-MB-231 cells harboring high integrin alphaVbeta3 expression assessed as inhibition of cell growth incubated for 72 hrs by CCK-8 assay; assay type: functional, cell-based; details: MDA-MB-231, 72 h
# MCF7 [12] = test: Antiproliferative activity against human MCF7 cells harboring low integrin alphaVbeta3 expression assessed as inhibition of cell growth incubated for 72 hrs by CCK-8 assay; assay type: functional, cell-based; details: MCF7, 72 h
# L02 [13] = test: Antiproliferative activity against human L02 cells harboring minimal integrin alphaVbeta3 expression assessed as inhibition of cell growth incubated for 72 hrs by CCK-8 assay; assay type: functional, cell-based; details: L02, 72 h
# [14] = biological target: Bromodomain-containing protein 4 (Homo sapiens) (UniProt O60885); test: Induction of BRD4 degradation in human MCF7 cells harboring low integrin alphaVbeta3 expression at 0.04 uM incubated for 24 hrs by Western blot analysis; assay type: cell-based
# [15] = biological target: Bromodomain-containing protein 4 (Homo sapiens) (UniProt O60885); test: Induction of BRD4 degradation in human MCF7 cells harboring low integrin alphaVbeta3 expression at 0.11 uM incubated for 24 hrs by Western blot analysis relative to control; assay type: cell-based
# [16] = biological target: Bromodomain-containing protein 4 (Homo sapiens) (UniProt O60885); test: Induction of BRD4 degradation in human L02 cells lacking integrin alphaVbeta3 expression at 0.33 uM incubated for 24 hrs by Western blot analysis relative to control; assay type: cell-based
# [17] = biological target: Bromodomain-containing protein 4 (Homo sapiens) (UniProt O60885); test: Induction of BRD4 degradation in human MDA-MB-231 cells harboring high integrin alphaVbeta3 expression at 300 nM measured at 24 hrs by Western blot analysis; assay type: cell-based
# [18] = biological target: Bromodomain-containing protein 4 (Homo sapiens) (UniProt O60885); test: Induction of BRD4 degradation in human MCF7 cells harboring low integrin alphaVbeta3 expression at 300 nM measured at 16 hrs by Western blot analysis; assay type: cell-based
# [19] = biological target: Bromodomain-containing protein 4 (Homo sapiens) (UniProt O60885); test: Induction of BRD4 degradation in human MCF7 cells harboring low integrin alphaVbeta3 expression at 300 nM measured at 20 hrs by Western blot analysis relative to control; assay type: cell-based
# [20] = biological target: Bromodomain-containing protein 4 (Homo sapiens) (UniProt O60885); test: Induction of BRD4 degradation in human L02 cells lacking integrin alphaVbeta3 expression at 300 nM measured at 24 hrs by Western blot analysis relative to control; assay type: cell-based
# MCF7 [21] = test: Antimigratory activity against human MCF7 cells harboring low integrin alphaVbeta3 expression assessed as inhibition of cell migration at 200 nM incubated for 48 hrs by crystal violet staining based transwell assay; assay type: functional
# L02 [22] = test: Antimigratory activity against human L02 cells lacking integrin alphaVbeta3 expression assessed as inhibition of cell migration at 200 nM incubated for 48 hrs by crystal violet staining based transwell assay; assay type: functional
# MDA-MB-231 [23] = test: Antitumor activity against human MDA-MB-231 cells xenografted in BALB/C nude mouse assessed as tumor growth inhibition at 5 uM, iv administered every other day and measured after 21 days by vernier caliper method relative to control; assay type: functional; details: MDA-MB-231, 504 h, time 21 day, read-out: TGI
# [24] = Toxicity in BALB/C mouse xenografted with human MDA-MB-231 cells assessed as weight loss at 5 uM, iv administered for 21 days and measured every 3 days; assay type: organism-based; details: in vivo, 504 h, time 21 day
# [25] = Toxicity in BALB/C mouse xenografted with human MDA-MB-231 cells assessed as adverse reactions at 5 uM, iv administered for 21 days and measured every 3 days; assay type: organism-based; details: in vivo, 504 h, time 21 day
# [26] = Toxicity in BALB/C mouse xenografted with human MDA-MB-231 cells assessed as effect on heart weight at 5 uM, iv administered every other day for 21 days; assay type: organism-based; details: in vivo, 504 h, time 21 day
# [27] = Toxicity in BALB/C mouse xenografted with human MDA-MB-231 cells assessed as effect on liver weight at 5 uM, iv administered every other day for 21 days; assay type: organism-based; details: in vivo, 504 h, time 21 day
# [28] = Toxicity in BALB/C mouse xenografted with human MDA-MB-231 cells assessed as effect on spleen weight at 5 uM, iv administered every other day for 21 days; assay type: organism-based; details: in vivo, 504 h, time 21 day
# [29] = Toxicity in BALB/C mouse xenografted with human MDA-MB-231 cells assessed as effect on lung weight at 5 uM, iv administered every other day for 21 days; assay type: organism-based; details: in vivo, 504 h, time 21 day
# [30] = Toxicity in BALB/C mouse xenografted with human MDA-MB-231 cells assessed as effect on kidney weight at 5 uM, iv administered every other day for 21 days; assay type: organism-based; details: in vivo, 504 h, time 21 day
# [31] = Toxicity in BALB/C mouse xenografted with human MDA-MB-231 cells assessed as lung damage at 5 uM, iv administered every other day for 21 days and measured 37 days post treatment by H and E staining based assay; assay type: organism-based; details: in vivo, 1392 h, time 58 day
# MDA-MB-231 [32] = test: Antitumor activity against human MDA-MB-231 cells xenografted in BALB/C nude mouse assessed as disruption of tumor blood vessel wall at 5 uM, iv administered every other day and measured after 21 days by H and E staining based assay; assay type: functional, organism-based; details: time 21.0 day
# [33] = Antitumor activity against patient-derived Breast cancer organoid assessed as inhibition of cell growth incubated for approximately 3 to 5 days by CCK-8 assay; assay type: functional, tissue-based; details: Homo sapiens
smiles,measurement,setting,value
Cc1ncsc1-c1ccc([C@H](C)NC(=O)[C@@H]2C[C@@H](OC(=O)OCCSSCCOC(=O)CCC(=O)N[C@@H](CCCNC(=N)N)C(=O)NCC(=O)N[C@@H](CC(=O)O)C(=O)O)CN2C(=O)[C@@H](NC(=O)COCCOCCOCCNC(=O)C[C@@H]2N=C(c3ccc(Cl)cc3)c3c(sc(C)c3C)-n3c(C)nnc32)C(C)(C)C)cc1,Activity,[1],Active
same,solubility at 0.5 h,[2],> 10 mM
same,"remaining at 72 h, 50 µM",[3],94.6%
same,Drug metabolism,[4],Tde
same,Activity,[5],inactive
same,Activity,[6],inactive
same,Activity,[7],Active
same,Activity,[8],inactive
same,Activity,[9],inactive
same,Activity,[10],Active
same,IC50,MDA-MB-231 [11],190 nM
same,IC50,MCF7 [12],190 nM
same,IC50,L02 [13],980 nM
Cc1ncsc1-c1ccc([C@H](C)NC(=O)[C@@H]2C[C@@H](O)CN2C(=O)[C@@H](NC(=O)COCCOCCOCCNC(=O)C[C@@H]2N=C(c3ccc(Cl)cc3)c3c(sc(C)c3C)-n3c(C)nnc32)C(C)(C)C)cc1,Activity,[1],Active
same,solubility at 0.5 h,[2],29.5 mM
same,Activity,[14],Active
same,Activity,[15],100%
same,Activity,[16],100%
same,Activity,[17],Active
same,Activity,[18],Active
same,Activity,[19],100%
same,Activity,[20],100%
same,Activity,[8],Active
same,Activity,[9],Active
same,Activity,[10],Active
same,IC50,MDA-MB-231 [11],90 nM
same,IC50,MCF7 [12],30 nM
same,IC50,L02 [13],400 nM
same,Activity,MCF7 [21],Active
same,Activity,L02 [22],Active
same,inhibition in vivo at 5 µM,MDA-MB-231 [23],36.3%
same,Activity,[24],Non-Toxic
same,Activity,[25],Non-Toxic
same,Activity,[26],Non-Toxic
same,Activity,[27],Non-Toxic
same,Activity,[28],Non-Toxic
same,Activity,[29],Non-Toxic
same,Activity,[30],Non-Toxic
same,Activity,[31],Toxic
same,Activity,MDA-MB-231 [32],inactive
same,IC50,[33],2100 nM
Cc1ncsc1-c1ccc([C@H](C)NC(=O)[C@@H]2C[C@@H](OC(=O)CCC(=O)N[C@@H](Cc3c[nH]cn3)C(=O)N[C@@H](Cc3c[nH]cn3)C(=O)NCC(=O)N[C@@H](CCCNC(=N)N)C(=O)NCC(=O)N[C@@H](CC(=O)O)C(=O)O)CN2C(=O)[C@@H](NC(=O)COCCOCCOCCNC(=O)C[C@@H]2N=C(c3ccc(Cl)cc3)c3c(sc(C)c3C)-n3c(C)nnc32)C(C)(C)C)cc1,solubility at 0.5 h,[2],> 10 mM
same,"remaining at 72 h, 50 µM",[3],10.2%
